Measurements taken from US6150332A, “Method and composition for lowering low density lipoprotein cholesterol” (Virginia Commonwealth University, priority 1998, dated 2000).

How the values were obtained:
human HepG2 cells = test: Iodine labeled LDL binding in HepG2 cells in culture; assay type: cell-based; settings: 2 μM or 5 μM tested, added 24-48 hr after incubation began, FIG. 1a
Experimental: (§1) With reference to FIGS. 1a-b, an experiment was conducted wherein iodine labeled LDL was incubated with HepG2 or rat hepatocytes in culture with and without cleaved α1 -antitrypsin or hypocholesterolemic peptides. The cleaved α1 -antitrypsin and hypocholesterolemic peptides were added 24-48 hr after incubation began in 2 micromolar (μM) or 5 μM concentrations. The bound LDL was quantitated by counting. The control indicates the amount of bound LDL obtained when no cleaved α1 -antitrypsin or hypocholesterolemic peptides are present. FIGS. 1a-b show maximum LDL binding occurs when 2 μM α1 -antitrypsin or its peptide derivatives are added.
An acetyl derivative of SEQ ID No. 16 was tested experimentally in human Hep G2 cells for LDL binding in the same manner as described above in connection with FIGS. 1a-b. […] ID No. 16. The sub-fragment was added 24-48 hours after incubation began in concentrations ranging from 0.13-1.4 μM.

rat hepatocytes = test: Iodine labeled LDL binding in rat hepatocytes in culture; assay type: cell-based; settings: 2 μM or 5 μM tested, added 24-48 hr after incubation began, FIG. 1b
Experimental: as §1

- concentration at which maximum LDL binding occurs (rat hepatocytes): 2 µM
Substance: α1 -antitrypsin
- concentration at which maximum LDL binding occurs (human HepG2 cells): 2 µM
